Assay results: patent US8541418B2, “Inhibitors of polo-like kinase” (Elan Pharmaceutical, Inc., priority 2009, dated 2013)

Legend:
Format in all cases: biochemical
PLK3 = PLK3 (Homo sapiens, UniProt Q9H4B4); test: PLK TR-FRET peptide assay, PLK3; details: GST-PLK3, 15 min reaction, read-out: Plk3 IC50
PLK1 = PLK1 (Homo sapiens, UniProt P53350); test: PLK TR-FRET peptide assay, PLK1; details: GST-PLK1, 60 min reaction
PLK2 = PLK2 (Homo sapiens, UniProt Q9NYY3); test: PLK TR-FRET peptide assay, PLK2; details: PLK TR-FRET peptide assay, GST-PLK2, 60 min reaction; read-out: Plk2 IC50
Chain of PLK2 (Q9NYY3 whole entry): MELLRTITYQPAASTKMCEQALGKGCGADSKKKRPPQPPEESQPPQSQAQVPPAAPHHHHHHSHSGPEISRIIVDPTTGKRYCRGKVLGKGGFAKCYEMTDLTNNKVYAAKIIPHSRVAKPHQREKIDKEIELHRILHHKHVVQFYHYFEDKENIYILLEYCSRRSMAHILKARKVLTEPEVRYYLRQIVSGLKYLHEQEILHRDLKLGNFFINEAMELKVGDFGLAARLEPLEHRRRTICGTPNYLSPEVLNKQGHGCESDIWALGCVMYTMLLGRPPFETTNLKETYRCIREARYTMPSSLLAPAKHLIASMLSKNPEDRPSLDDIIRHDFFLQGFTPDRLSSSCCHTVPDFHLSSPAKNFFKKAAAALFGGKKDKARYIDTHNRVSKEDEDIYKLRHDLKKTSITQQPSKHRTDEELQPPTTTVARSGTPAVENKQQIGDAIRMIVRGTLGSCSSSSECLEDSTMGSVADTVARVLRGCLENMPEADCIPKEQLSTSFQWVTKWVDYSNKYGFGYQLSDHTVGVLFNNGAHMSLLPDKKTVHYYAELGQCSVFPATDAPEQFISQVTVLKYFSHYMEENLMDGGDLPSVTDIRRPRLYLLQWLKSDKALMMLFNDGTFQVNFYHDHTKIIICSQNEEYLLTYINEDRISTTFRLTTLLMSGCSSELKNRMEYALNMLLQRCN

Chain of PLK1 (P53350 whole entry): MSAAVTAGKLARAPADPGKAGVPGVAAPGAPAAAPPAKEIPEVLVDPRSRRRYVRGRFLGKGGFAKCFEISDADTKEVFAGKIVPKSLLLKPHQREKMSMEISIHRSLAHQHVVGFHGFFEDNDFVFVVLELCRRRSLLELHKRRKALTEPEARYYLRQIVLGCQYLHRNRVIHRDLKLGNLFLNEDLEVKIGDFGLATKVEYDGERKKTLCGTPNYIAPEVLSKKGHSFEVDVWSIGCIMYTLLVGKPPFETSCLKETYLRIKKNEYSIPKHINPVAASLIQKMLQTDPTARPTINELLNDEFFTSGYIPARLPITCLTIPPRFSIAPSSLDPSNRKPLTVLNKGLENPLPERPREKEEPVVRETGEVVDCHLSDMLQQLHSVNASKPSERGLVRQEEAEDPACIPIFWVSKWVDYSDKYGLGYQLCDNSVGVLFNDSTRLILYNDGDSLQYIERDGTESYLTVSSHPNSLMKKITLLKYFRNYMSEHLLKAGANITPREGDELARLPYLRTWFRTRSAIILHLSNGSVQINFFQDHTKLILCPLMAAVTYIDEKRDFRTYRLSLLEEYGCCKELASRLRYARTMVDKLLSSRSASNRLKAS
Chain of PLK3 (Q9H4B4 whole entry): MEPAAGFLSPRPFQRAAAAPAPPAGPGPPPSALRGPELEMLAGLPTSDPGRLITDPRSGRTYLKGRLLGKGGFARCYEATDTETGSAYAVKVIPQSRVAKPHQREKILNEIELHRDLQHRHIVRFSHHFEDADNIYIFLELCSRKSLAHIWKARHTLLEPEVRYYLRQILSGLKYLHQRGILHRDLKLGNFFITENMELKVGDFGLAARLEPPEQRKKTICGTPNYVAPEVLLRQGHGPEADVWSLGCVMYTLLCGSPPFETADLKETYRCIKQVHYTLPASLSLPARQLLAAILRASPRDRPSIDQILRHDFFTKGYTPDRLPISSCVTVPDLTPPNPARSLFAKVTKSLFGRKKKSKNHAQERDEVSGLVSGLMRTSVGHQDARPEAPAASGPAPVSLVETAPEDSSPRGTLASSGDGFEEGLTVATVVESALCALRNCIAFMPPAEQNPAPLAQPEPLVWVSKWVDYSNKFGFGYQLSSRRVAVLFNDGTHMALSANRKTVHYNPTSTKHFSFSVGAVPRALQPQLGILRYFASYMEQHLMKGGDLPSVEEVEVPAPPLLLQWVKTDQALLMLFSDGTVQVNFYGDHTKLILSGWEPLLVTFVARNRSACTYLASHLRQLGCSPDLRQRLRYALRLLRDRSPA

SMILES	IC50 (PLK3) [µM]	IC50 (PLK1) [µM]	IC50 (PLK2) [µM]
CC[C@@H]1C(=O)N(C)c2cnc(-n3ccnc3-c3nccs3)nc2N1C1CCCC1 [Example 74, (R)-8-cyclopentyl-7-ethyl-5-methyl-2-(2-(thiazol-2-yl)-1H-imidazol-1-yl)-7,8-dihydropteridin-6(5H)-one]	< 1	< 1	< 1
CC[C@@H]1C(=O)N(C)c2cnc(-n3ccnc3Cc3ccccc3)nc2N1C1CCCC1 [Example 75, (R)-2-(2-benzyl-1H-imidazol-1-yl)-8-cyclopentyl-7-ethyl-5-methyl-7,8-dihydropteridin-6(5H)-one]	10 to 50	1 to 10	< 1
CC[C@@H]1C(=O)N(C)c2cnc(-n3ccnc3N3CCCC3=O)nc2N1C1CCCC1 [Example 82, (R)-8-cyclopentyl-7-ethyl-5-methyl-2-(2-(2-oxopyrrolidin-1-yl)-1H-imidazol-1-yl)-7,8-dihydropteridin-6(5H)-one]	10 to 50	1 to 10	1 to 10
CC[C@@H]1C(=O)N(C)c2cnc(-n3ccnc3C3=CCOCC3)nc2N1C1CCCC1 [Example 84, (R)-8-cyclopentyl-2-(2-(3,6-dihydro-2H-pyran-4-yl)-1H-imidazol-1-yl)-7-ethyl-5-methyl-7,8-dihydropteridin-6(5H)-one]	10 to 50	1 to 10	< 1
CC[C@@H]1C(=O)N(C)c2cnc(-c3ccncc3-c3ccccc3)nc2N1C1CCCC1 [Example 85, (R)-8-cyclopentyl-7-ethyl-5-methyl-2-(3-phenylpyridin-4-yl)-7,8-dihydropteridin-6(5H)-one]	< 1	< 1	< 1
CC[C@@H]1C(=O)N(C)c2cnc(-n3ccnc3N3CCCC3)nc2N1C1CCCC1 [Example 86, (R)-8-cyclopentyl-7-ethyl-5-methyl-2-(2-(pyrrolidin-1-yl)-1H-imidazol-1-yl)-7,8-dihydropteridin-6(5H)-one]	> 50	10 to 50	1 to 10
CC[C@@H]1C(=O)N(C)c2cnc(-n3ccnc3N3CCOCC3)nc2N1C1CCCC1 [Example 87, (R)-8-cyclopentyl-7-ethyl-5-methyl-2-(2-morpholino-1H-imidazol-1-yl)-7,8-dihydropteridin-6(5H)-one]	> 50	1 to 10	1 to 10
CC[C@@H]1C(=O)N(C)c2cnc(-n3ccnc3N3CCN(C)CC3)nc2N1C1CCCC1 [Example 88, (R)-8-cyclopentyl-7-ethyl-5-methyl-2-(2-(4-methylpiperazin-1-yl)-1H-imidazol-1-yl)-7,8-dihydropteridin-6(5H)-one]	> 50	10 to 50	10 to 50
CC[C@@H]1C(=O)N(C)c2cnc(-n3ccnc3-n3cccn3)nc2N1C1CCCC1 [Example 89, (R)-2-(2-(1H-pyrazol-1-yl)-1H-imidazol-1-yl)-8-cyclopentyl-7-ethyl-5-methyl-7,8-dihydropteridin-6(5H)-one]	< 1	< 1	< 1
CC[C@@H]1C(=O)N(C)c2cnc(-n3ccnc3C3CCOCC3)nc2N1C1CCCC1 [Example 90, (R)-8-cyclopentyl-7-ethyl-5-methyl-2-(2-(tetrahydro-2H-pyran-4-yl)-1H-imidazol-1-yl)-7,8-dihydropteridin-6(5H)-one]	10 to 50	1 to 10	1 to 10
CC[C@@H]1C(=O)N(C)c2cnc(-c3ccncc3N)nc2N1C1CCCC1 [Example 91, (R)-2-(3-aminopyridin-4-yl)-8-cyclopentyl-7-ethyl-5-methyl-7,8-dihydropteridin-6(5H)-one]	1 to 10	< 1	< 1
CC[C@@H]1C(=O)N(C)c2cnc(-c3ccncc3NC(=O)OC(C)(C)C)nc2N1C1CCCC1 [Example 92, (R)-tert-butyl 4-(8-cyclopentyl-7-ethyl-5-methyl-6-oxo-5,6,7,8-tetrahydropteridin-2-yl)pyridin-3-ylcarbamate]	> 50	10 to 50	1 to 10
CC[C@@H]1C(=O)N(C)c2cnc(-c3ccncc3N)nc2N1C(C)C [Example 93, (R)-2-(3-aminopyridin-4-yl)-7-ethyl-8-isopropyl-5-methyl-7,8-dihydropteridin-6(5H)-one]	> 50	1 to 10	< 1
CC[C@@H]1C(=O)N(C)c2cnc(-c3ccncc3NC(=O)OC(C)(C)C)nc2N1C(C)C [Example 94, (R)-tert-butyl 4-(7-ethyl-8-isopropyl-5-methyl-6-oxo-5,6,7,8-tetrahydropteridin-2-yl)pyridin-3-ylcarbamate]	> 50	10 to 50	1 to 10
CC[C@@H]1C(=O)N(C)c2cnc(-c3ccncc3-c3ccccc3)nc2N1C1CCC1 [Example 96, (R)-8-cyclobutyl-7-ethyl-5-methyl-2-(3-phenylpyridin-4-yl)-7,8-dihydropteridin-6(5H)-one]	< 1	< 1	< 1
CC[C@@H]1C(=O)N(C)c2cnc(-c3ccccc3C(F)(F)F)nc2N1C1CCC1 [Example 98, (R)-8-cyclobutyl-7-ethyl-5-methyl-2-(2-(trifluoromethyl)phenyl)-7,8-dihydropteridin-6(5H)-one]	> 50	10 to 50	1 to 10
CC[C@@H]1C(=O)N(C)c2cnc(-n3ccnc3-c3cncc(F)c3)nc2N1C1CCCC1 [Example 99, (R)-8-cyclopentyl-7-ethyl-2-(2-(5-fluoropyridin-3-yl)-1H-imidazol-1-yl)-5-methyl-7,8-dihydropteridin-6(5H)-one]	< 1	< 1	< 1
CC[C@@H]1C(=O)N(C)c2cnc(-c3ccncc3NC(=O)c3ccccc3)nc2N1C1CCCC1 [Example 102, (R)—N-(4-(8-cyclopentyl-7-ethyl-5-methyl-6-oxo-5,6,7,8-tetrahydropteridin-2-yl)pyridin-3-yl)benzamide]	1 to 10	1 to 10	< 1
CC[C@@H]1C(=O)N(C)c2cnc(-c3ccncc3NC(=O)CC(C)(C)C)nc2N1C(C)C [Example 103, (R)—N-(4-(7-ethyl-8-isopropyl-5-methyl-6-oxo-5,6,7,8-tetrahydropteridin-2-yl)pyridin-3-yl)-3,3-dimethylbutanamide]	10 to 50	10 to 50	10 to 50
CC[C@@H]1C(=O)N(C)c2cnc(-c3ccncc3NC(=O)c3ccccc3)nc2N1C(C)C [Example 104, (R)—N-(4-(7-ethyl-8-isopropyl-5-methyl-6-oxo-5,6,7,8-tetrahydropteridin-2-yl)pyridin-3-yl)benzamide]	1 to 10	1 to 10	< 1
CC[C@@H]1C(=O)N(C)c2cnc(-c3ccncc3CN)nc2N1C1CCCC1 [Example 105, (R)-2-(3-(aminomethyl)pyridin-4-yl)-8-cyclopentyl-7-ethyl-5-methyl-7,8-dihydropteridin-6(5H)-one]	> 50	10 to 50	10 to 50
CC[C@@H]1C(=O)N(C)c2cnc(-c3ccncc3CNC(=O)OC(C)(C)C)nc2N1C(C)C [Example 107, (R)-tert-butyl (4-(7-ethyl-8-isopropyl-5-methyl-6-oxo-5,6,7,8-tetrahydropteridin-2-yl)pyridin-3-yl)methylcarbamate]	> 50	> 50	> 50
CC[C@@H]1C(=O)N(C)c2cnc(-c3ccncc3NC(=O)CC(C)(C)C)nc2N1C1CCCC1 [Example 108, (R)—N-(4-(8-cyclopentyl-7-ethyl-5-methyl-6-oxo-5,6,7,8-tetrahydropteridin-2-yl)pyridin-3-yl)-3,3-dimethylbutanamide]	> 50	10 to 50	10 to 50
CC[C@@H]1C(=O)N(C)c2cnc(-n3ccnc3N3C(=O)CCC3=O)nc2N1C1CCC1 [Example 112, (R)-1-(1-(8-cyclobutyl-7-ethyl-5-methyl-6-oxo-5,6,7,8-tetrahydropteridin-2-yl)-1H-imidazol-2-yl)pyrrolidine-2,5-dione]	> 50	10 to 50	10 to 50
CC[C@@H]1C(=O)N(C)c2cnc(-n3ccnc3-n3ccccc3=O)nc2N1C1CCCC1 [Example 113, (R)-8-cyclopentyl-7-ethyl-5-methyl-2-(2-(2-oxopyridin-1(2H)-yl)-1H-imidazol-1-yl)-7,8-dihydropteridin-6(5H)-one]	1 to 10	1 to 10	< 1
CC[C@@H]1C(=O)N(C)c2cnc(-c3ccncc3NC(=O)OC)nc2N1C1CCCC1 [Example 114, (R)-methyl 4-(8-cyclopentyl-7-ethyl-5-methyl-6-oxo-5,6,7,8-tetrahydropteridin-2-yl)pyridin-3-ylcarbamate]	10 to 50	1 to 10	< 1
CC[C@@H]1C(=O)N(C)c2cnc(-c3ccncc3NC(C)=O)nc2N1C1CCCC1 [Example 115, (R)—N-(4-(8-cyclopentyl-7-ethyl-5-methyl-6-oxo-5,6,7,8-tetrahydropteridin-2-yl)pyridin-3-yl)acetamide]	10 to 50	1 to 10	< 1
CC[C@@H]1C(=O)N(C)c2cnc(-c3ccncc3NS(C)(=O)=O)nc2N1C1CCCC1 [Example 116, (R)—N-(4-(8-cyclopentyl-7-ethyl-5-methyl-6-oxo-5,6,7,8-tetrahydropteridin-2-yl)pyridin-3-yl)methanesulfonamide]	> 50	1 to 10	< 1
CC[C@@H]1C(=O)N(C)c2cnc(-c3ccncc3NC(=O)OC)nc2N1C(C)C [Example 117, (R)-methyl 4-(7-ethyl-8-isopropyl-5-methyl-6-oxo-5,6,7,8-tetrahydropteridin-2-yl)pyridin-3-ylcarbamate]	> 50	1 to 10	1 to 10
